Experimental data as given in the NIST ThermoML archive (doi:10.1021/acs.jced.5b00752).
Where “and” joins values, the source holds several entries; their conditions need not be identical. Identical values can stand only once.

Settings: Closed cell (Static) method

CCOC(=O)c1ccccc1C(=O)OCC [diethyl phthalate]
Liquid
Settings	vapor or sublimation pressure
312.21 K	0.00032 kPa and 0.00035 kPa
322.21 K	0.00105 kPa and 0.00103 kPa
332.21 K	0.00269 kPa
342.19 K	0.00623 kPa
352.18 K	0.01358 kPa
352.2 K	0.01352 kPa
362.2 K	0.02775 kPa
372.19 K	0.05429 kPa
372.2 K	0.05407 kPa
372.22 K	0.05424 kPa
382.23 K	0.1008 kPa
392.24 K	0.1821 kPa
402.37 K	0.3169 kPa
412.38 K	0.5303 kPa
422.49 K	0.8621 kPa
442.28 K	2.082 kPa
452.12 K	3.099 kPa

[CH]1C=CC=C1.[CH]1C=CC=C1.[Fe] [ferrocene]
Settings	vapor or sublimation pressure
312.2 K, Crystal	0.00369 kPa
312.21 K, Crystal	0.00359 kPa
322.21 K, Crystal	0.009 kPa and 0.00911 kPa
332.2 K, Crystal	0.02078 kPa
332.21 K, Crystal	0.02086 kPa and 0.02071 kPa
342.18 K, Crystal	0.04497 kPa and 0.04517 kPa
352.17 K, Crystal	0.0934 kPa [middle of 4 runs]
352.18 K, Crystal	0.09249 kPa and 0.09264 kPa and 0.09328 kPa
352.19 K, Crystal	0.0936 kPa
362.17 K, Crystal	0.1851 kPa and 0.185 kPa
362.18 K, Crystal	0.1854 kPa
372.2 K, Crystal	0.3543 kPa
382.19 K, Crystal	0.6508 kPa
392.2 K, Crystal	1.158 kPa
402.26 K, Crystal	2.001 kPa
402.31 K, Crystal	2.008 kPa
412.24 K, Crystal	3.346 kPa
412.32 K, Crystal	3.361 kPa
422.29 K, Crystal	5.47 kPa
422.4 K, Crystal	5.502 kPa
432.42 K, Crystal	8.756 kPa
442.26 K, Crystal	13.53 kPa
452.08 K, Liquid	19.48 kPa

c1ccc2ccccc2c1 [naphthalene]
Settings	vapor or sublimation pressure
312.2 K, Crystal	0.04084 kPa and 0.04083 kPa
317.21 K, Crystal	0.06326 kPa
322.21 K, Crystal	0.09622 kPa
327.21 K, Crystal	0.1447 kPa
332.21 K, Crystal	0.2153 kPa
337.21 K, Crystal	0.315 kPa and 0.3154 kPa
342.19 K, Crystal	0.4556 kPa
347.19 K, Crystal	0.651 kPa
352.19 K, Crystal	0.9213 kPa
357.19 K, Liquid	1.2 kPa
362.2 K, Liquid	1.521 kPa
367.21 K, Liquid	1.915 kPa and 1.914 kPa
372.22 K, Liquid	2.393 kPa
377.22 K, Liquid	2.966 kPa and 2.967 kPa
382.22 K, Liquid	3.657 kPa
387.23 K, Liquid	4.475 kPa and 4.476 kPa
392.24 K, Liquid	5.45 kPa
397.27 K, Liquid	6.593 kPa and 6.596 kPa
402.37 K, Liquid	7.962 kPa
407.32 K, Liquid	9.502 kPa
412.4 K, Liquid	11.33 kPa
422.55 K, Liquid	15.88 kPa
432.58 K, Liquid	21.75 kPa
442.46 K, Liquid	29.18 kPa
452.37 K, Liquid	38.57 kPa

CC[N-]C.CC[N-]C.CC[N-]C.CC[N-]C.[Hf+4] [tetrakis(ethylmethylamino)hafnium]
Crystal
Settings	vapor or sublimation pressure [kPa]
312.19 K	0.00296
322.2 K	0.00715
332.2 K	0.01587
342.18 K	0.03287
352.19 K	0.0644
362.19 K	0.121
372.21 K	0.216
382.21 K	0.37
392.24 K	0.591
